Structures can show the parent of a compound that is named as a salt.
How the values were obtained:
[1] = test system: duodenal epithelial mucosa tissue; assay: Test Example 1: atrophy of duodenal epithelial mucosa caused by 48-hour fasting, PAS-stained tissue sections; type: in vivo, rat; details: for Density of secretion granules / Intercellular space / Size of cell / Size of nucleus: fasting rats, 48 hours
Procedure: Six-week-old male Sprague-Dawley rats (purchased from Nippon Charles River) were employed in the test. Water and solid feed (CRF-1, product of Oriental Yeast) were freely ingested by the rats. […] The test was carried out for 48 hours. For the fasting groups, solid feed was removed in the morning of the day on which the test was initiated. During the 48 hours, solid feed, water, and an ethanolamine hydrochloride-containing aqueous solution were freely ingested by the rats in the solid feed ingestion group, the water ingestion fasting group, and the ethanolamine hydrochloride ingestion fasting group, respectively. The amount of water ingested during the 48 hours was measured, and the amount of ingested ethanolamine per rat was calculated on the basis of the amount of water (Table 2). […] The small intestine was excised from each rat, and a duodenal portion (size: 1 cm in length) was removed from a position 5 cm in the direction of the anus away from the pylorus. The removed portion was fixed in phosphate buffered formalin. After 24-hour fixation, the duodenal portion was embedded in paraffin using a conventional technique, to thereby prepare a tissue section. The thus-prepared tissue sample was subjected to PAS staining, and then observed.

[2] = Test Example 1: body weight of fasting rats; type: in vivo, rat; details: 48 hours; for Weight ± standard deviation, Final: fasting rats, free ingestion
Procedure: Six-week-old male Sprague-Dawley rats (purchased from Nippon Charles River) were employed in the test. Water and solid feed (CRF-1, product of Oriental Yeast) were freely ingested by the rats. […] The test was carried out for 48 hours. For the fasting groups, solid feed was removed in the morning of the day on which the test was initiated. During the 48 hours, solid feed, water, and an ethanolamine hydrochloride-containing aqueous solution were freely ingested by the rats in the solid feed ingestion group, the water ingestion fasting group, and the ethanolamine hydrochloride ingestion fasting group, respectively. The amount of water ingested during the 48 hours was measured, and the amount of ingested ethanolamine per rat was calculated on the basis of the amount of water (Table 2). For each group, the rats were weighed at the time of test initiation and the time of test completion, in order to obtain the average weight (Table 1). In the fasting groups, any changes in the weight of the rats that could be attributed to ethanolamine ingestion were not observed.

[3] = test system: keratinocyte; details: cited from earlier work
[4] = test system: villous epithelium of the duodenum; assay: Test Example 2: duodenal disorder induced by four-day fasting and intraperitoneal 5% dextrose, HE-stained tissue sections; type: in vivo, rat; details: 250 mg/5 mL/kg orally twice a day, first to third fasting day, versus control group
Procedure: Nine-week-old CD (SD) IGS male rats were employed in the test. The rats were kept in individual fasting cages, and the day after initiation of fasting was regarded as the first fasting day. Fasting (i.e., provision of no food and no water) was carried out for four days, and on the fourth day the rats were sacrificed through […]. A 5% dextrose solution was intraperitoneally administered to each rat in an amount of 10 mL on the basis of body weight (100 g) from the first fasting day to the third fasting day, to thereby induce disorders. The rats were divided into two groups: a control group and a drug administration group. To the rats of the control group, sterile water was orally administered in an amount of 0.5 mL per 100 g of body weight twice a day, at 10:00 AM and 4:00 PM. To the rats of the drug administration group, ethanolamine hydrochloride was administered in an amount of 250 mg/5 mL/kg twice a day, at 10:00 AM and 4:00 PM. The administration was carried out from the first fasting day to the third fasting day. On the fourth fasting day, the rats were sacrificed through cervical dislocation, and the stomach and the duodenum were removed from each rat. The inside of the intestinal tract was washed with saline. Subsequently, the pylorus was ligated and the tract was also ligated at a position 4 cm from the pylorus. […]

[5] = test system: primarily cultured liver cells; details: cited from earlier work
[6] = 1 μM Etn in water (6 μg/kg/day)
[7] = 10 μM Etn in water (34 μg/kg/day)
[8] = 100 μM Etn in water (330 μg/kg/day)
[9] = 1000 μM Etn in water (4500 μg/kg/day)

NCCO [ethanolamine hydrochloride]
position of nuclei in cells ([1]; 100 μM ingestion fasting group): situated centrally
enlarged intercellular spaces and cell atrophy ([1]; 100 μM ingestion fasting group, compared with solid feed ingestion group): not observed
cell nuclei size ([1]; 100 μM ingestion fasting group, compared with water and 1 or 10 μM fasting groups): considerably enlarged
PAS staining of mucus-secreting granules in goblet cells ([1]; 100 μM ingestion fasting group, compared with water ingestion fasting group): heavily stained
cell nuclei size ([1]; 1 or 10 μM ingestion fasting groups): reduced in size
Density of secretion granules [1, 6]: Low
Intercellular space [1, 6]: Large
Size of cell [1, 6]: Small
Size of nucleus [1, 6]: Small
Density of secretion granules [1, 7]: Low
Intercellular space [1, 7]: Large
Size of cell [1, 7]: Small
Size of nucleus [1, 7]: Small
Density of secretion granules [1, 8]: High
Intercellular space [1, 8]: None
Size of cell [1, 8]: Large
Size of nucleus [1, 8]: Large
Density of secretion granules [1, 9]: High
Intercellular space [1, 9]: None
Size of cell [1, 9]: Large
Size of nucleus [1, 9]: Large
prevention and treatment of atrophy of the small intestine caused by fasting ([1]; overall conclusion of Test Example 1): effective
Weight ± standard deviation, Final ([2]; 1 μM Etn in water): 208.2 ± 3.1 g
Weight ± standard deviation, Final ([2]; 10 μM Etn in water): 209.4 ± 7.4 g
Weight ± standard deviation, Final ([2]; 100 μM Etn in water): 210.4 ± 3.9 g
Weight ± standard deviation, Final ([2]; 1000 μM Etn in water): 213.1 ± 6.7 g

NCCO [ethanolamine]
proliferation of epithelial cells [3]: promote proliferation
cellular infiltration [4]: only slight
necrosis of the villous epithelium [4]: remarkably suppressed
proliferation of liver cells ([5]; in the presence of a cell growth factor such as EGF, ethanolamine 10-100 μM): synergistically promoted
proliferation-promoting activity ([5]; only ethanolamine added, no cell growth factor): not observed
changes in the weight of the rats that could be attributed to ethanolamine ingestion ([2]; fasting groups): not observed
